Data on 5 compounds can be found in US20260152777A1, “METHOD FOR PRODUCING EPIGALLOCATECHIN GALLATE MONOGLUCOSIDE” (GIVAUDAN SA, priority 2022, published 2026).

The subject of data set [1] is spontaneous formation of Advanced Glycation End-products (AGEs). Description: Anti-glycation in tubo assay (BSA + ribose, fluorescence). The class given is biochemical. The note with it: 17 h at 37° C.; for IC50: BSA + ribose, read-out: IC50 in well (concentration which inhibits AGEs formation by half). Here is the method:
The anti-glycation effect was evaluated using an in tubo assay to measure the spontaneous formation of Advanced Glycation End-products (AGEs). This assay was conducted on a 96-wells microplate. […] The extracts were diluted in sodium phosphate buffer (0.1 M, pH 7.4). Several dilutions were tested. Each diluted extract was run in triplicate. A standard range of aminoguanidine was used as inhibitor reference (positive control). A mixture of the sodium phosphate buffer and BSA was used to validate the experiment and a mixture of sodium phosphate buffer, BSA and ribose was used as the positive control. Two blanks were carried out for the extract: • with phosphate buffer, BSA and extract • with phosphate buffer, ribose and extract The microplate was agitated and incubated for 17 h at 37° C. The fluorescence reading was performed with ? excitation 340 nm and ? emission 420 nm. The anti-glycation activity of the extract was calculated as follows: [formula] FI: Fluorescence of tested extract; blank extract (ribose or BSA); positive control; negative control. Based on the above measurements and calculation, the IC50, i.e. the concentration of the extract which inhibits AGEs formation by half, was calculated.

Data set [2] concerns female volunteers with a dark skin type (phototype IV or more) and dull skin. Description: Clinical evaluation on African skin: skin color by Chromameter L* parameter. The note with it: cream with 0.01% of EGCG aglycone, full face twice daily, dark skin type. The format is in vivo, human. As to the method: The clinical study was carried out on 85 female volunteers aged from 19 to 47 years, which were divided in three groups: active, placebo and aglycone. The study was performed in South Africa on female volunteers with a dark skin type (phototype IV or more) and dull skin. All participants provided signed informed consent at the beginning of the study. The study was conducted according to the guidelines of the Declaration of Helsinki. […] Skin color evolution was measured after 14, 28 and 56 days using L* parameter measurement by Chromameter®.
The skin color was evaluated by means of a Chromameter CR400, which measures skin color, and the parameter L* (lightness) was recorded. The greater the value, the lighter the skin color. Depending on the test type, at least three or at least 15 readings were taken at each test sub-site for each time interval to serve as the specific pigmentation sport color measurement component of the study. Skin color was analyzed at D0, D14, D28 and D56.
For all studies in vivo, a Shapiro Wilk test was used to verify whether the raw data followed the Gaussian Law. In case of Normally-distributed data, the mean values were compared using either an unpaired or paired t student test. In case of non-Normally-distributed data, a Wilcoxon (paired) and Kruskal-Wallis test followed by a Mann-Whitney U (unpaired) test were used for paired data and unpaired data, respectively.

In a further data set the test system is human skin explants. Description: Whitening activity (ex vivo), Fontana-Masson staining for melanin quantification. The format is cell-based. As to conditions: at 2%, topical, 7 days. As to the method: Fresh human skin explants were obtained from skin phototype III and VI donors, aged of 46±25 years. […] Kojic acid (Sigma-Aldrich) at 2% was topically applied and incubated under the same conditions, serving as positive control. The untreated condition was treated with the vehicle (distilled water). The medium was renewed every other day. After the end of culture, the skin explants were sampled and put in formalin before being dehydrated and embedded in paraffin for Fontana-Masson staining.
Skin explants fixed in formalin were dehydrated and embedded in paraffin. Sections of 4 μm thickness were dewaxed and then stained by Fontana-Masson silver method for melanin.
Images were collected using an Axio Observer Inverted fluorescence microscope (Zeiss) in bright field mode.
Melanin was quantified using two open source optical imaging software programs. Photomicrographs (jpeg format) of Fontana-Masson tissue sections were opened in GIMP-GNU Image Manipulation Program. The brown-black color signals corresponding to melanin grains on stained sections were selected, copied and pasted into a new image and saved as a jpeg file; this jpeg file consists solely of black/brown (melanin grains) on a white background. This image was subsequently opened using the ImageJ program. The image was then inverted and the mean intensity was obtained.

Data set [3] relates to Normal Human Epidermal Keratinocytes (NHEKs). Description: Antioxidant activity: ROS production in keratinocytes stressed with TBP (DCFH-DA probe). The class given is cell-based. The note with it: at 200 μM. As to the method: A 96 wells-plate was coated with a collagen I solution at 50 μg/ml. Normal Human Epidermal Keratinocytes (NHEKs) were seeded at 20′000 cells per well with four replicates. Cells were incubated for 24 hours in complete medium (Epilife, Gibco) supplemented with Human keratinocyte growth supplements (HKGS) factor (Gibco) and 1% antibiotics (Sigma) at 37° C. with 5% CO2. […] The evolution of the fluorescence was followed for 1 hour.

Data set [4] in a line: Skin penetration by Raman spectroscopy (ex vivo). The format is in vitro ADME, human. The note with it: human. As to the method:
At the end of the incubation period, the skin explants were frozen in Optimal Cutting Temperature (OCT; VWR) at −80° C. and then cut longitudinally using a cryotome with a thickness of 20 μm. For each explant, 3 tissue sections were selected and deposited on a CaF2 support for Raman imaging analysis. The processing of corrected data maps was performed by using a software based on least squares fitting method that operates in the Matlab environment. This method involves mathematical modeling of reference spectra in the overall spectral image to determine the contribution and distribution of these spectra within the image. The reference spectra were the modelled spectra of the following products: Aglycone, glucoside mixture, 4′-O-α-monoglucoside and untreated skin control.

The structures appear in SMILES notation.

With `O=C(O[C@@H]1Cc2c(O)cc(O)cc2O[C@@H]1c1cc(O)c(O)c(O)c1)c1cc(O)c(O)c(O)c1` [EGCG aglycone, epigallocatechin gallate], the IC50 in data set [1] was found to be 128 µM. The “Inhibition AGE's” value in data set [1] (tested concentration 0.109 mM) turned out to be 31.95%; in data set [1] (tested concentration 0.436 mM) it was 59.84%; in data set [1] (tested concentration 2.180 mM) it was 93.56%; in data set [1] (tested concentration 10.9 mM), 97.36%. The “L* on uneven skin tone area” value in data set [2] is “slight decrease of L*”. In addition, the “global skin color whitening, 15 measurements on hemi face” value in data set [2] is given as “almost no whitening effect”.

As to `O=c1cc(CO)occ1O` [Kojic acid], the “reduction of melanin content compared to untreated” value with human skin explants is 34%.

Regarding `Oc1ccc(C=Cc2cc(O)cc(O)c2)cc1` [Resveratrol], the “reduction of ROS production” value in data set [3] (24 h, NHEKs stressed with TBP 5 mM) worked out at 61%. Further, the “ROS, Mean (% of untreated)” value in data set [3] (TBP column = 100, Untreated = 27.5) is reported as 39 % of untreated.

As to `N=C(N)NN` [aminoguanidine, reference compound], the IC50 in data set [1] was found to be 326 µM.

Turning to `OCC1OC(Oc2c(O)cc(C3Oc4cc(O)cc(O)c4CC3O)cc2O)C(O)C(O)C1O` (stereo not drawn) [epigallocatechin 4′-O-α-monoglucoside, Epigallocatechin 4′-O-α-monoglucoside], the “bioavailability in the skin” value in data set [4] is listed as “much higher bioavailability in the skin than the respective aglycones”.
